Read-outs that look alike come from different tables or passages of the source.
Key:
[1] = tested on: HBV infected primary human hepatocytes; conditions: Tsai et al. 2017, Bam et al. 2016; cited from earlier work
[2] = patients with mild allergic asthma; Tsitoura et al. 2015; cited from earlier work
[3] = tested on: NFκB pathway in Ramos-blue cells; assay: Ramos-Blue NFκB/SEAP reporter assay with cysteine-capped linker-payloads, 72 h (Example 15); assay type: cell-based; conditions: read-out: Relative Activation
Method: A 50 mM cysteine stock was prepared in 0.1 M PBS pH 7.4. 10 equivalents of 50 mM cysteine were added to 1 equivalent of linker-payload to create a 2.50 mM solution. The reaction was vortexed and sat at room temperature for an hour to allow for the Michael addition to occur. After an hour, an aliquot was taken and run via UPLC-MS to ensure for the complete Michael reaction. The reaction was diluted to 1 mM using 0.1M PBS pH 7.4. The 1 mM solution was diluted to 500 uM and 50 uM in a 96-well plate to afford a final concentration of 50 uM and 5 uM in the cell suspension. The cell density and viability were calculated using the Countess Cell Counter and the proper volume of cells was removed in order to have a seeding density of 0.2×10^6 cells/mL per well. 135 uL of cell suspension was added to each well in a 96-well plate along with 15 uL of the corresponding linker-payload treatment. Each concentration was run in triplicate and incubated at 37° C. with 5% CO2 for 72 hours.
Invivogen's QUANTI-Blue™ solution was prepared by adding 200 uL of QB reagent and 200 uL of QB buffer to 19.6 mL of water. The resulting solution was vortexed and incubated at room temperature for ten minutes. The 96-well plate was centrifuged at 1990 rpm for ten minutes. Then, 40 uL of cell supernatant was added to 160 uL of the prepared QUANTI-Blue™ solution and incubated at 37° C. for 24 hours. The plate was read using the Molecular Devices i3x plate reader at a wavelength of 630 nm to determine the amount of SEAP production.

[4] = tested on: hepatitis C virus; conditions: treatment of hepatitis C virus; Fidock et al. 2011; cited from earlier work
[5] = Linker-Payload Dose 5 uM, cysteine-capped, 72 hours, SEAP at 630 nm
[6] = Linker-Payload Dose 50 uM, cysteine-capped, 72 hours, SEAP at 630 nm

In the case of `CCCCOc1nc(N)c2c(n1)N(Cc1cccc(CN3CCCC3)c1)CC(=O)N2` [GS-9620], the Antiviral activity [1] is given as “no antiviral activity”.

For `CCC[C@H](C)Oc1nc(N)c2[nH]c(=O)n(CCCCCN3CCCCC3)c2n1` [GSK-2245035], the “Efficacy on allergen-induced asthmatic response” value [2] is listed as “lack efficacy”.

In the case of `CCOCc1nc2c(NC(=O)OCc3ccc(NC(=O)C(CCCNC(N)=O)NC(=O)C(NC(=O)CCCCCN4C(=O)C=CC4=O)C(C)C)cc3)nc3ccccc3c2n1CC(C)(C)O` (centres unmarked) [Mc_ValCitPABC_Resiquimod, 4-(2-(2-(6-(2,5-Dioxo-2,5-dihydro-1H-pyrrol-1-yl)hexanamido)-3-methylbutanamido)-5-ureidopentanamido)benzyl 2-(ethoxymethyl)-1-(2-hydroxy-2-methylpropyl)-1H-imidazo[4,5-c]quinolin-4-ylcarbamate], the activation at 5 µM [3, 5] is reported as 18.6% and the activation at 50 µM [3, 6] is reported as -20.8%.

`CCCCc1nc2c(N)nc3ccccc3c2n1Cc1ccc(CNC(=O)C(CCCNC(N)=O)NC(=O)C(NC(=O)CCCCCN2C(=O)C=CC2=O)C(C)C)cc1` (centres unmarked) [Mc_ValCit_E66, N-(1-(1-(4-((4-amino-2-butyl-1H-imidazo[4,5-c]quinolin-1-yl)methyl)benzylamino)-1-oxo-5-ureidopentan-2-ylamino)-3-methyl-1-oxobutan-2-yl)-6-(2,5-dioxo-2,5-dihydro-1H-pyrrol-1-yl)hexanamide] gave an activation at 5 µM [3, 5] of 125% and an activation at 50 µM [3, 6] of -51.4%.

Work on `CCCCc1nc2c(N)nc3ccccc3c2n1Cc1ccc(NC(=O)C(CCCNC(N)=O)NC(=O)C(NC(=O)CCCCCN2C(=O)C=CC2=O)C(C)C)cc1` (centres unmarked) [Mc_ValCit_E104, N-(1-(1-(4-((4-amino-2-butyl-1H-imidazo[4,5-c]quinolin-1-yl)methyl)phenylamino)-1-oxo-5-ureidopentan-2-ylamino)-3-methyl-1-oxobutan-2-yl)-6-(2,5-dioxo-2,5-dihydro-1H-pyrrol-1-yl)hexanamide] yielded an activation at 5 µM [3, 5] of 238% and an activation at 50 µM [3, 6] of -50.9%.

Compound `CCOCc1cc2c(NC(=O)C(CCCNC(N)=O)NC(=O)C(NC(=O)CCCCCN3C(=O)C=CC3=O)C(C)C)nc3ccccc3c2n1CC(C)(C)O` (centres unmarked) [Mc_ValCit_Resiquimod, 6-(2,5-Dioxo-2,5-dihydro-1H-pyrrol-1-yl)-N-(1-(1-(2-(ethoxymethyl)-1-(2-hydroxy-2-methylpropyl)-1H-pyrrolo[3,2-c]quinolin-4-ylamino)-1-oxo-5-ureidopentan-2-ylamino)-3-methyl-1-oxobutan-2-yl)hexanamide] has an activation at 5 µM ([3]; 72 h) of 11.4% and an activation at 50 µM ([3]; 72 h) of -23.1%.

In the case of `CCc1nc2c(N)nc3ccccc3c2n1CCCCNS(C)(=O)=O` [PF-4878691], the Therapeutic index [4] is listed as “low therapeutic index”.

— patent US20240189440A1, “TLR7 AND TLR8 AGONISTS FOR THE TREATMENT OF CANCER AND/OR INFECTIOUS DISEASES” (priority 2021, published 2024)
